Values joined by “and” are separate entries in the source; they are usually repeats but may differ in a detail not shown here. Equal values may be shown once. Active and inactive are the calls of the source.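 Rule for the calls: active = compounds giving half or more protection of infected cells from virus-caused growth loss, again on retest; inactive = the rest.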 Where a SMILES comes first, the peptide text is derived from it. The star is where a group is joined. Boc = CC(C)(C)OC(=O)*; OBn = c1ccc(CO*)cc1

In the assay the test system is CEM cells HIV-1 protection, formazan growth assay. Briefly: NCI AIDS Antiviral Assay. The following applies: for IC50: measured here: growth of uninfected CEM cells. Summed up:
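Human CEM cells, uninfected and HIV-1-infected, received five drug concentrations, and growth was read by soluble formazan assay. Compounds giving at least 50% protection were retested; reproducible 100% protection defined confirmed active.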

For the compound `CC(C)(C)c1cc2c3c(c1)C(C(F)(F)F)(C(F)(F)F)O[Te]3(C)OC2(C(F)(F)F)C(F)(F)F`, the EC50 was over 31.6 µM and the IC50 was over 31.6 µM.

For `S=C1NC(c2ccc(Cl)cc2)N2C(=S)NC(c3ccc(Cl)cc3)N12` (configuration not stated), the result was inactive.

For the compound `CO/N=C1/C(n2[nH]c(=O)n(-c3ccccc3)c2=O)C2C=CC1n1c(=O)n(-c3ccccc3)c(=O)n12` (configuration not stated), the EC50 is over 200 µM and the IC50 is over 200 µM.

With `Cc1ncc([N+](=O)[O-])n1CCNC(=O)CCCCCn1ccnc1[N+](=O)[O-]`, the result was inactive.

Take `O=Cc1ccc(/C=C2\C=Cc3ccccc32)cc1`: the EC50 was over 58.9 µM and the IC50 was over 58.9 µM.

Consider `Cc1cc(=O)oc2cc(O)cc(OCc3ccccc3)c12`, for which the EC50 was over 107 µM and the half-inhibitory concentration (IC50) amounted to 41.7 µM.

Regarding `CC(C)(CO)/[N+]([O-])=C/c1ccccc1`, the EC50 is over 200 µM and the half-maximal inhibitory concentration (IC50) is over 200 µM.

In the case of `CCCCN(CCCC)CC(=O)Nc1ccc(C(=O)OCC(C)C)cc1`, the EC50 is over 200 µM and the IC50 is over 200 µM.

As to `CC(=O)/C=C(/C)[O-].CCN(CC)CCNCCN.O=N[O-].[Co+3].[O-][Cl+3]([O-])([O-])[O-]`, the EC50 is over 200 µM and the IC50 is over 200 µM.

For the compound `NCCOc1c2occc2cc2ccc(=O)oc12`, the EC50 was over 275 µM and the IC50 was determined as 20.4 µM.

In the case of `O=C1/C(=C/c2ccc(Cl)cc2)CCC/C1=C\c1ccc(O)c(CN2CCCCC2)c1`, the EC50 was over 100 µM and the IC50 turned out to be 5.25 µM.

In the case of `O=C1Sc2ccccc2Cn2cccc21`, the EC50 is 186 µM and the concentration for half-maximal inhibition (IC50) was over 200 µM.

Consider `CC(=O)OC1CC2OC(Cc3ccccc32)O1` (configuration not stated), for which the EC50 was over 200 µM and the 50% inhibitory concentration (IC50) is over 200 µM.

As for `O=c1[nH]nc(Cc2ccccc2)n1Nc1ccccc1`, the EC50 is over 200 µM and the IC50 is over 200 µM.

As to `COc1cc(OC)c2c(c1)C(=O)c1cc(C)cc(O)c1C2=O`, the outcome was inactive.

Consider `O=C(N/C(=C\c1ccccc1O)C1NC(Cc2c[nH]c3ccccc23)C(=O)O1)c1ccccc1` (configuration not stated), for which the EC50 is over 100 µM and the IC50 amounted to 74.1 µM.

For the compound `CC(=O)/C(=C/N1CC(=O)NC1=S)C(=O)Nc1ccccc1C`, the EC50 is over 200 µM and the IC50 is over 200 µM.

Regarding `O=[N+]([O-])c1cc(C(F)(F)F)cc([N+](=O)[O-])c1CCl`, the result was inactive.

Take `Nc1c(S(=O)(=O)O)cc2cc(S(=O)(=O)O)ccc2c1N=Nc1ccc(/C=C/c2ccc(N=Nc3c(N)c(S(=O)(=O)O)cc4cc(S(=O)(=O)O)ccc34)cc2S(=O)(=O)O)c(S(=O)(=O)O)c1`: the EC50 was 2.82 µM and the half-inhibitory concentration (IC50) worked out at 79.4 µM.

As to `COC(=O)C1=C(C)N(NC(=O)Nc2ccccc2)C2(N)N(NC(=O)Nc3ccccc3)C(C)=C(C(=O)OC)C12C(=O)OC` (configuration not stated), the EC50 was over 31.6 µM and the IC50 was over 31.6 µM.

Regarding `Nc1c(S(=O)(=O)O)cc(S(=O)(=O)O)c2ccc(N=Nc3ccc(/C=C/c4ccc(N=Nc5ccc6c(S(=O)(=O)O)cc(S(=O)(=O)O)c(N)c6c5O)cc4S(=O)(=O)O)c(S(=O)(=O)O)c3)c(O)c12`, the concentration for a half-maximal effect (EC50) was 10.2 µM and the half-maximal inhibitory concentration (IC50) came out at 51.3 µM.

Consider `CC12CCC3C(CCC4=CC(=O)C=CC43C)C1CC(O)C(=O)O2` (configuration not stated), for which the EC50 is over 200 µM and the half-inhibitory concentration (IC50) was over 200 µM.

As to `CCN(CC)/[N+]([O-])=N/OCOC(C)=O`, the EC50 was over 200 µM and the half-maximal inhibitory concentration (IC50) stood at 102 µM.

For `O=[N+]([O-])c1cc(S(=O)(=O)c2ccc(Cl)c([N+](=O)[O-])c2)ccc1Cl`, the EC50 was over 200 µM and the concentration for half-maximal inhibition (IC50) is 2.34 µM.

In the case of `O=C1/C(=C\c2ccc([N+](=O)[O-])cc2)N(S(=O)(=O)c2ccccc2)c2ncccc21`, the EC50 was over 200 µM and the half-inhibitory concentration (IC50) was found to be 13.5 µM.

With `CSc1nc2c(=O)oc(-c3ccccc3)nc2s1`, the EC50 was over 200 µM and the concentration for half-maximal inhibition (IC50) stood at 6.03 µM.

In the case of `COCCCCCCCCCCC(=O)OCC1OC(n2cc(C)c(=O)[nH]c2=O)CC1N=[N+]=[N-]` (configuration not stated), the result was active and the concentration for half-maximal inhibition (IC50) amounted to 117 µM.

Regarding `COc1ccc2c(c1)N(S(=O)(=O)c1ccc(C)cc1)C[C@@H]1c3cc(O)c(OCc4ccccc4)cc3O[C@H]21`, the result was inactive.

With `CC(=O)Oc1ccccc1-c1cc2ccccc2oc1=O`, the EC50 was over 200 µM and the IC50 is over 100 µM.

Regarding `CC(CN=C(N)CSS(=O)(=O)O)OC12CC3CC(CC(C3)C1)C2` (configuration not stated), the EC50 is over 200 µM and the half-inhibitory concentration (IC50) was found to be 35.5 µM.

`C/C=C(\C)C(=O)OC1CC(OC(C)=O)C2(C(=O)OC)COC3C2C1(C)C1C2(C(=O)OC)OCC1(C3O)C1(O)C3CC(C4(O)C=COC4O3)C1(C)O2` (configuration not stated): the EC50 is over 200 µM and the concentration for half-maximal inhibition (IC50) worked out at 174 µM.

`O=C1O[C@H](C(Cl)(Cl)Cl)N2CCCC12` (some centres not stated): the EC50 is over 204 µM and the half-inhibitory concentration (IC50) was over 204 µM.

Consider `C=C(C)[C@@H](C(=O)OC)N1C(=O)c2ccccc2C1=O`, for which the EC50 is over 200 µM and the IC50 is over 200 µM.

With `Cc1cc(C)n2c(-c3ccccc3)c(C)cc2n1`, the EC50 is over 110 µM and the IC50 came to 17.4 µM.

Regarding `Cc1ccc(OCC2OC(n3cnc4c(Cl)ncnc43)CC2Oc2ccc(C)cc2)cc1` (configuration not stated), the EC50 is over 200 µM; the IC50 is 6.92 µM and 12.3 µM.

Regarding `CNC1C(OC2C(OC3C(O)C(O)C(N=C(N)N)C(O)C3N=C(N)N)OC(C)C2(O)/C=N/NC(N)=S)OC(CO)C(O)C1O` (configuration not stated), the outcome was inactive.

Consider `Cc1c(N=Nc2ccc(Br)cc2)c(=O)n(-c2ccccc2)c(=S)n1-c1nc2ccccc2s1`, for which the EC50 was over 83.2 µM and the IC50 was determined as 19.5 µM.

As to `O=C(Nn1c(-c2ccccc2)nc2ccccc2c1=O)c1ccc([N+](=O)[O-])cc1`, the EC50 is over 200 µM and the IC50 was over 200 µM.

`CCCCCCCCCC(=O)Oc1c2ccoc2cc2oc(=O)ccc12`: the EC50 was over 63.1 µM and the half-maximal inhibitory concentration (IC50) was over 63.1 µM.

On to `c1ccc(N=C2SC(c3ccccc3)(c3ccccc3)c3ccccc32)cc1`, for which the EC50 was over 200 µM and the 50% inhibitory concentration (IC50) was over 200 µM.

As to `CCOC(=O)/C(=C\n1c(=S)[nH]c2cc(C)ccc21)C(=O)c1ccccc1`, the EC50 is over 100 µM and the 50% inhibitory concentration (IC50) is over 100 µM.

In the case of `Cc1cc(N(CCC#N)CCC#N)ccc1/C=C1N=C(/C=C\c2ccccc2)N(c2ccc(Cl)cc2)C\1=O`, the outcome was inactive.

Turning to `Cc1cc(Cl)n2nc(-c3ccc(Cl)cc3)nc2n1`, the EC50 was over 49 µM and the IC50 is over 49 µM.

With `Cc1nc(C)c(N2CCN(CN)CC2)c(=O)[nH]1`, the EC50 is over 200 µM and the 50% inhibitory concentration (IC50) is over 200 µM.

Regarding `N#CC(=C(c1ccccc1)c1ccccc1)c1ccccc1`, the EC50 was over 151 µM and the concentration for half-maximal inhibition (IC50) was over 151 µM.

`Cc1nn(C(=O)Cc2ccccc2)c2c1C(c1ccccc1[N+](=O)[O-])SC(N)=N2` (configuration not stated): the half-maximal effective concentration (EC50) was over 501 µM and the IC50 turned out to be 87.1 µM.

As for `N#CC1C(=O)Nc2sc(C(=O)c3ccc(Br)cc3)c(N)c2C12CCCCC2` (configuration not stated), the EC50 was over 200 µM and the IC50 stood at 11.5 µM.

For the compound `C[C@]12CCc3nonc3C1CC[C@@H]1C2CC[C@]2(C)C(=O)CCC12` (some centres not stated), the EC50 was over 83.2 µM and the half-inhibitory concentration (IC50) is over 83.2 µM.

For `Cc1cccc(C)c1NC(=O)/C(Cl)=C(/Cl)C(=O)O`, the result was inactive.

As for `CSCCCNC(=O)c1csc(-c2csc(CCNC(=O)CNC(=O)CNC(=O)OC(C)(C)C)n2)n1`, the EC50 is over 447 µM and the IC50 is 214 µM.

For `COC(=O)c1ccccc1NC(=O)/C(=N\NC(C)(C)C)C(C#N)c1nc(-c2ccc([N+](=O)[O-])cc2)cs1` (configuration not stated), the EC50 is over 69.2 µM and the IC50 was over 69.2 µM.

Turning to `O=C(O)CCC(=O)OCCNCCOC(=O)CCC(=O)O`, the outcome was inactive.

Take `CC(=O)OC1(c2ccccc2)OC(=O)C(C)(C)c2ccccc21` (configuration not stated): the EC50 is over 158 µM and the IC50 is over 158 µM.

Take `FC(F)(Sc1ccccn1)c1nc2ccccc2o1`: the concentration for a half-maximal effect (EC50) is 14.8 µM and the IC50 was found to be 89.1 µM.

As for `CC1(C)OC(=O)c2cc(C(=CC=O)c3cc(Cl)c4c(c3)C(=O)OC(C)(C)O4)cc(Cl)c2O1`, the EC50 was over 200 µM and the half-maximal inhibitory concentration (IC50) is 36.3 µM.

In the case of `CCCCCCOC(=O)Nc1nnc(SSC2=NN=CC2NC(=O)OCCCCCC)s1` (configuration not stated), the EC50 is over 200 µM and the IC50 worked out at 19.5 µM.

As to `CC(C)OP(=O)(OC(C)C)/C(C#N)=C/c1ccco1`, the EC50 was over 200 µM and the 50% inhibitory concentration (IC50) is over 200 µM.

Consider `CCCCCCCCCC=C(c1cc(Br)cc(C(=O)O)c1OC)c1cc(Br)cc(C(=O)O)c1OC`, for which the EC50 is over 1200 µM and the half-inhibitory concentration (IC50) worked out at 75.9 µM.

Regarding `CC(=O)c1ccc(NC(=O)C(=O)C(C(=O)/C=C/c2ccccc2)C2OC(=O)c3ccccc32)cc1` (configuration not stated), the EC50 was over 282 µM and the IC50 turned out to be 148 µM.

For `CCCCn1c(C)c(C)c2c1NN=C(C#N)S2(=O)=O`, the EC50 is over 200 µM and the IC50 is over 200 µM.

`CCOC(=O)CN1CCNCCN(CC(=O)OCC)CCNCC1`: the EC50 is over 100 µM and the IC50 turned out to be 9.77 µM.

Consider `COC(=O)c1nsc(OC)c1Cl`, for which the EC50 is over 200 µM and the IC50 is over 200 µM.

For the compound `CSc1c2c(C)n[nH]c2nn1-c1ccccc1`, the EC50 was over 200 µM and the IC50 stood at 12.3 µM.

For `C[C@@H](NC(=O)[C@@H]1C[C@]1(C)COC(=O)c1cc([N+](=O)[O-])cc([N+](=O)[O-])c1)c1cccc2ccccc12`, the EC50 was over 200 µM and the IC50 is 115 µM.

In the case of `COC(=O)c1ccc(C)cc1C1CN=NC12Cc1cccc(C)c1C2=O` (configuration not stated), the EC50 is over 200 µM and the IC50 is over 200 µM.

Regarding `CC(=O)Nc1sccc1S(=O)(=O)c1ccsc1NC(C)=O`, the EC50 was over 200 µM and the IC50 amounted to 5.62 µM.

`CC(C)(C)OC(=O)NC(Cc1ccccc1)C(=O)NC(Cc1ccccc1)C(=O)NCC(=O)OCc1ccccc1` (stereo not drawn) (Boc-Phe-Phe-Gly-OBn; configuration not given here): the EC50 is over 200 µM and the IC50 stood at 11.5 µM.

Regarding `CN(C)/N=C(/c1nc2ccc(Cl)cc2[nH]c1=O)C(O)c1ccc(C(O)/C(=N\N(C)C)c2nc3ccc(Cl)cc3[nH]c2=O)cc1` (configuration not stated), the EC50 was over 389 µM and the concentration for half-maximal inhibition (IC50) is 24 µM.

(Values after PubChem BioAssay AID179 (DTP/NCI, 2004).)
